In PMC7126098 (Bioorganic & Medicinal Chemistry, 2019):
Each block holds one molecule with its values, some of them ahead of it.

Tests used:
[1] = tested on: herpes simplex virus-1 (KOS strain); test: Inhibition of virus-induced cytopathicity, HSV-1; format: cell-based; settings: anti-HSV screening in HEL cells
[2] = tested on: herpes simplex virus-2 (G strain); test: Inhibition of virus-induced cytopathicity, HSV-2; format: cell-based; settings: Human alphaherpesvirus 2, HEL, read-out: EC50 HSV-2
[3] = tested on: eight human cancer cell lines; test: Cytostatic activity against panel of human cell lines; format: cell-based; settings: for IC50: Homo sapiens, read-out: cytostatic activity (IC50 range over cell lines)
[4] = Stability towards light and air; format: physicochemical
[5] = tested on: HSV-1 TK; settings: relative to ACV; cited from earlier work
[6] = tested on: human cytomegalovirus (HCMV) (AD-169 strain and Davis strain); test: Inhibition of virus-induced cytopathogenicity, HCMV in HEL cells; format: cell-based
[7] = tested on: pancreatic adenocarcinoma Capan-1 cell line; test: Cytostatic activity against Capan-1; format: cell-based, human
[8] = tested on: cell culture; settings: at concentrations up to 100 µg/mL; cited from earlier work

SMILES: O=c1c2ncn(CCC(CO)CO)c2nc2[nH]c(-c3ccccc3)cn12 [9a, 3-(4-Hydroxy-3-(hydroxymethyl)butyl)-6-phenyl-3,5-dihydro-9H-imidazo[1,2-a]purin-9-one]
antiviral activity (in words) [1]: inactive

EC50 [2]: 28 to 40.9 µM
SMILES: O=c1c2ncn(CCC(CO)CO)c2nc2[nH]c(-c3ccc(F)cc3)cn12 [9b, 6-(4-Fluorophenyl)-3-(4-hydroxy-3-(hydroxymethyl)butyl)-3,5-dihydro-9H-imidazo[1,2-a]purin-9-one]

SMILES: O=c1c2ncn(CCC(CO)CO)c2nc2[nH]c(-c3ccc(Cl)cc3)cn12 [9c, 6-(4-Chlorophenyl)-3-(4-hydroxy-3-(hydroxymethyl)butyl)-3,5-dihydro-9H-imidazo[1,2-a]purin-9-one]
antiviral activity (in words) [1]: inactive

SMILES: Cc1ccc(-c2cn3c(=O)c4ncn(CCC(CO)CO)c4nc3[nH]2)cc1 [9d, 3-(4-Hydroxy-3-(hydroxymethyl)butyl)-6-(p-tolyl)-3,5-dihydro-9H-imidazo[1,2-a]purin-9-one]
antiviral activity (in words) [1]: inactive

EC50 [2]: 28 to 40.9 µM | IC50 [3]: 12.5 to 76.1 µM
SMILES: O=c1c2ncn(CCC(CO)CO)c2nc2[nH]c(-c3ccc(C(F)(F)F)cc3)cn12 [9e, 3-(4-Hydroxy-3-(hydroxymethyl)butyl)-6-(4-(trifluoromethyl)phenyl)-3,5-dihydro-9H-imidazo[1,2-a]purin-9-one]

EC50 [2]: 28 to 40.9 µM
SMILES: O=c1c2ncn(CCC(CO)CO)c2nc2[nH]c(-c3ccc4c(c3)OCO4)cn12 [9i, 6-(Benzo[d][1,3]dioxol-5-yl)-3-(4-hydroxy-3-(hydroxymethyl)butyl)-3,5-dihydro-9H-imidazo[1,2-a]purin-9-one]

IC50 [3]: 16.9 to 90.4 µM
SMILES: O=c1c2ncn(CCC(CO)CO)c2nc2[nH]c(-c3ccc(Oc4ccccc4)cc3)cn12 [9j, 3-(4-Hydroxy-3-(hydroxymethyl)butyl)-6-(4-phenoxyphenyl)-3,5-dihydro-9H-imidazo[1,2-a]purin-9-one]
antiviral activity (in words) [1]: inactive

SMILES: O=c1c2ncn(CCCCO)c2nc2[nH]c(-c3ccc(C(F)(F)F)cc3)cn12 [10e, 3-(4-Hydroxybutyl)-6-(4-(trifluoromethyl)phenyl)-3,5-dihydro-9H-imidazo[1,2-a]purin-9-one]
cytostatic activity (in words) ([3]; range of cancer cell lines): most effective

stability towards light and air [4]: stable enough to be collected safely
SMILES: O=c1c2ncn(CCCCO)c2nc2[nH]c(-c3cccs3)cn12 [10h, 3-(4-Hydroxybutyl)-6-(thiophen-2-yl)-3,5-dihydro-9H-imidazo[1,2-a]purin-9-one]

SMILES: Nc1nc2c(ncn2CCCCO)c(=O)[nH]1 [HBG, hydroxybutylguanine]
affinity for HSV-1 TK (in words) [5]: higher affinity for HSV-1 TK than ACV | activity against HCMV (in words) [6]: inactive | inhibition of proliferation of Capan-1 (in words) [7]: slightly inhibited

SMILES: Nc1nc2c(ncn2CCC(CO)CO)c(=O)[nH]1 [PCV, penciclovir]
toxicity in cell culture [8]: did not exhibit any toxicity | activity against HCMV (in words) [6]: not inhibitory | inhibition of proliferation of Capan-1 (in words) [7]: slightly inhibited
